Source: the supplement of paper PMC11451515

Tested on: SEM cells
Assay: cell viability relative to DMSO control; higher = less cytotoxic
Conditions: 48 h
How it was run: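 Three leukemia lines were tested: NOMO1 and SEM at 500 cells/well and P12-Ichikawa at 1000 cells/well. Each was adapted for at least four passages in each medium and seeded in 5 μl in 1536-well plates, and library compounds in DMSO were pin-dosed from 47 μM to 0.79 nM in 11 threefold steps. After 48 h at 37°C, CellTiter-Glo One luminescence was read. Viability is a percentage relative to DMSO wells on each plate, with cell-free wells as background.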

[1] = HPLM + 10% dialyzed FBS, 0.000781 µM
[2] = HPLM + 10% dialyzed FBS, 0.00234 µM
[3] = HPLM + 10% dialyzed FBS, 0.00702 µM
[4] = HPLM + 10% dialyzed FBS, 0.0211 µM
[5] = HPLM + 10% dialyzed FBS, 0.0632 µM
[6] = HPLM + 10% dialyzed FBS, 0.19 µM
[7] = HPLM + 10% dialyzed FBS, 0.569 µM
[8] = HPLM + 10% dialyzed FBS, 1.71 µM
[9] = HPLM + 10% dialyzed FBS, 5.12 µM
[10] = HPLM + 10% dialyzed FBS, 15.4 µM
[11] = HPLM + 10% dialyzed FBS, 46.1 µM
[12] = RPMI 5 mM glucose + 10% FBS, 0.000781 µM
[13] = RPMI 5 mM glucose + 10% FBS, 0.00234 µM
[14] = RPMI 5 mM glucose + 10% FBS, 0.00702 µM
[15] = RPMI 5 mM glucose + 10% FBS, 0.0211 µM
[16] = RPMI 5 mM glucose + 10% FBS, 0.0632 µM
[17] = RPMI 5 mM glucose + 10% FBS, 0.19 µM
[18] = RPMI 5 mM glucose + 10% FBS, 0.569 µM
[19] = RPMI 5 mM glucose + 10% FBS, 1.71 µM
[20] = RPMI 5 mM glucose + 10% FBS, 5.12 µM
[21] = RPMI 5 mM glucose + 10% FBS, 15.4 µM
[22] = RPMI 5 mM glucose + 10% FBS, 46.1 µM
[23] = RPMI 5 mM glucose + 10% dialyzed FBS, 0.000781 µM
[24] = RPMI 5 mM glucose + 10% dialyzed FBS, 0.00234 µM
[25] = RPMI 5 mM glucose + 10% dialyzed FBS, 0.00702 µM
[26] = RPMI 5 mM glucose + 10% dialyzed FBS, 0.0211 µM
[27] = RPMI 5 mM glucose + 10% dialyzed FBS, 0.0632 µM
[28] = RPMI 5 mM glucose + 10% dialyzed FBS, 0.19 µM
[29] = RPMI 5 mM glucose + 10% dialyzed FBS, 0.569 µM
[30] = RPMI 5 mM glucose + 10% dialyzed FBS, 1.71 µM
[31] = RPMI 5 mM glucose + 10% dialyzed FBS, 5.12 µM
[32] = RPMI 5 mM glucose + 10% dialyzed FBS, 15.4 µM
[33] = RPMI 5 mM glucose + 10% dialyzed FBS, 46.1 µM

Structure (SMILES)	cell viability [1] [%]	cell viability [2] [%]	cell viability [3] [%]	cell viability [4] [%]	cell viability [5] [%]	cell viability [6] [%]	cell viability [7] [%]	cell viability [8] [%]	cell viability [9] [%]	cell viability [10] [%]	cell viability [11] [%]	cell viability [12] [%]	cell viability [13] [%]	cell viability [14] [%]	cell viability [15] [%]	cell viability [16] [%]	cell viability [17] [%]	cell viability [18] [%]	cell viability [19] [%]	cell viability [20] [%]	cell viability [21] [%]	cell viability [22] [%]	cell viability [23] [%]	cell viability [24] [%]	cell viability [25] [%]	cell viability [26] [%]	cell viability [27] [%]	cell viability [28] [%]	cell viability [29] [%]	cell viability [30] [%]	cell viability [31] [%]	cell viability [32] [%]	cell viability [33] [%]
CC(C)(C)NC(=O)[C@@H]1CN(Cc2cccnc2)CCN1C[C@@H](O)C[C@@H](Cc1ccccc1)C(=O)N[C@H]1c2ccccc2C[C@H]1O.O=S(=O)(O)O	73.5	89.2	93.5	100	94.1	96.5	104	90.9	93.3	90.3	78.7	109	99.5	104	114	107	108	112	122	95.6	92.1	54.5	102	102	109	119	94.9	118	122	112	96.9	90.4	62.8
COC(=O)[C@@H](N)CCCNC(=N)N[N+](=O)[O-]	82	37.9	89.1	96.1	94.3	95.1	87.2	110	93.1	89.9	95.2	95.5	39.2	90.7	92.1	95.2	102	90.3	101	104	104	101	85.1	26.2	78	89.3	101	84.8	99	108	101	107	104
CO[C@@H]1C(N(C)C(=O)c2ccccc2)C[C@H]2O[C@]1(C)n1c3ccccc3c3c4c(c5c6ccccc6n2c5c31)C(=O)NC4=O (stereo partly drawn)	70.6	69.4	95.4	89.2	75.8	92.6	90	80.5	40.3	14.7	7.83	68.2	66.2	92.1	91.2	86.5	86.1	75.1	47.7	19.4	10.7	7.46	81.5	84.1	91.7	79.6	82.7	102	79.7	74.4	35.7	13.2	8.6
CN(C)CCN(Cc1ccc(Cl)cc1)c1ccccn1.Cl	79.9	80.5	80.9	80.1	79.3	84.8	89.9	94.4	86.6	88	86.9	90.8	90.8	92.8	84.4	95.7	108	102	99.5	98.8	103	84.7	83.2	92.1	96.4	100	94	106	84	96.1	92.2	106	91.6
O=C1N\2CCC3=C([NH]C4=C3C=CC=C4)C2=N/C5=CC=CC=C15	96	102	114	118	92.8	123	123	115	110	90.8	76.8	124	113	137	134	109	126	122	147	144	95	83.7	123	112	142	135	121	153	147	135	151	101	53.6
COC1=CC=C(C=C1)C2CC(=N/N2C3=CC=C(C=C3)[S+](N)([O-])=O)\C4=CC=CC=C4 (stereo not drawn)	83.3	91.2	91.4	104	110	69.2	86.3	51.3	30.9	4.3	2.47	104	86.1	107	104	107	43.4	72.9	37.8	14.8	2.74	1.62	87.3	74	84.3	95.4	100	60.1	63.3	45.9	19	2.63	2.05
